According to patent US20240294467A1, “USP9X Inhibitors” (ProDeg, LLC, priority 2021, published 2024):
Like-named read-outs stand apart in the source and are kept apart here.

Columns and labels:
MDA-MB-231 cells = test: WST-1 cell viability assay; format: cell-based; details: co-treatment of 10 μM Compound 5A
Description: (§1) Compound Compound 9A was tested for the ability to inhibit the proliferation of Mia-Paca-2 pancreatic cancer cells. Mia-Paca-2 and MDA-MB-231 cells were seeded into the wells of a 96 well tissue culture plate in complete medium (10% fetal calf serum) and incubated overnight at 37° C./5% CO2). The medium was exchanged for fresh medium containing varying concentrations of Compound 9A and the plate was incubated for 72 hours at 37° C./5% CO2. The viability of cells at the end of this incubation was assessed with the WST-1 reagent. To 10 ml of warm (37° C.) complete medium, 1 ml WST-1 reagent was added. The medium from the wells of the plate with the Mia-Paca-2 cells was removed and replaced with 100 μL of the WST-1 reagent in complete medium. The plate was incubated at 37 37° C./5% CO2. At timed intervals the absorbance at 450 nm was determined for each well in a UVNis plate reader. For each well the slope of the plot of the absorbance 450 nm vs time was determined. The readings were normalized to that of the wells for the untreated control and a dose-response curve was plotted. A fit to the data was made from a four parameter, variable slope program (GraphPad Prism) and the IC50 was determined.
The TNBC cell line MDA-MB-231 express high levels of Mcl-1 and USP9X in addition to Bcl-2 and Bcl-xL. MDA-MB-231 cells were treated with ABT737 for 72 hours at varying concentrations and underwent western blot analysis.

U937 cells = test: WST-1 cell viability assay; format: cell-based; details: for IC50: Homo sapiens, U-937, 72-hour treatment
Description: as §1
The effect of Compound 7A on U937 cells was assessed using the same experiment described in the Inhibitory Activities against the Proliferation of Mia-Paca-2 and Other Cancer Cells section above. In response to treatment with Compound 7A, proliferation of U937 leukemia cells was inhibited and induced apoptosis was obsessed by trypan blue staining.
U937 cells were treated with the Bcl-2/Bcl-xL inhibitor ABT737 72 hours at varying concentrations and underwent western blot analysis.

erbB2 = test: Western blot of erbB2 in SK-BR3 cells; format: cell-based, human; details: 72-hour treatment, 10 μm
Description: Another substrate of USP9X is the receptor tyrosine kinase erbB2. […] The breast cancer cell line SK-BR3 expresses high levels of erbB2. This cell line was treated with Compound 7A and the effects on cell viability as well as expression levels of erbB2 were examined.
Compound 7A inhibited the viability of SK-BR3. The levels of erbB2 were determined by Western blot and found to decrease in parallel with the decline in cell viability. After 72-hour treatment of 10 μm Compound 7A, the level of erbB2 declined to about zero. The loss of erbB2 from the plasma membrane was also confirmed by flow cytometry.

[1] = system: SK-BR3 breast cancer cells; test: WST-1 cell viability assay; format: cell-based; details: Homo sapiens, SK-BR-3, 72-hour treatment, read-out: IC50, inhibiting proliferation
Description: as §1
Another substrate of USP9X is the receptor tyrosine kinase erbB2. […] The breast cancer cell line SK-BR3 expresses high levels of erbB2. […]

BT-549 = test: ONCOLINES Profiler proliferation; format: cell-based, human
Text: (§2) The compounds were profiled on an ONCOLINES™ Profiler (Netherlands Translational Research Center) assayed with 66 cancer cell lines to determine if they were capable of inhibiting the proliferation of these cancer cells.
(§3) To further evaluate potency of the compounds, they were compared with the USP9X inhibitor WP 1130 by screening both the compounds and WP1130 on a 66-cancer cell line panel ONCOLINES™ Profiler.

RKO = test: ONCOLINES Profiler proliferation; format: cell-based; details: for IC50: colon carcinoma
Text: as §2, §3

PD-L1 = test: Western blot of PD-L1 in MIA PaCa-2 cells; format: cell-based; details: 24 hours
Description: MIA PaCa-2 cells expressing detectable levels of PD-L1 are treated with Compound 7A at various concentrations for 24 hours, and the ensuing level of PD-L1 are determined by Western blot to decrease by about 50% after the treatment.

66 cancer cell lines = test: ONCOLINES Profiler, whole panel; format: cell-based
Text: The sensitivities of multiple cancer cells can be determined by screening the compounds on a cancer cell line panel, such as an ONCOLINES™ Profiler (Netherlands Translational Research Center) assayed with various tumor cell lines. For more information on ONCOLINES™ methods, see https://www.oncolines.com/oncolines/oncolines-explained-facts/. […] For example, Compound 7A inhibited the proliferation of 57 of the 66 cell lines being tested. […] “A tumor cell line sensitive to the compounds” is referred to that the proliferation of a tumor cell line, when contacted with the compounds, is inhibited by at least 50%, at least 60%, at least 70%, at least 80%, at least 85%, at least 90%, at least 91%, at least 92%, at least 93%, at least 94%, at least 95%, at least 96%, at least 97%, at least 98%, at least 99%, or 100%.
as §2, §3

[2] = system: Mia-Paca-2 pancreatic cancer cells; test: WST-1 cell viability assay; format: cell-based; details: Mia-Paca-2 pancreatic cells
Description: as §1
(§4) The same procedures were also applied to the compounds Compound 7A, Compound 6A, and Compound 8A to test their inhibitory activities against RKO colon, Mia-Paca-2 pancreatic and BT-549 cancer cells.

RKO colon cells = test: WST-1 cell viability assay; format: cell-based
Description: as §1, §4

Mcl-1 = test: Capture ELISA of Mcl-1 and ubiquitylated Mcl-1 in MIA-PaCa-2 cells; format: cell-based, human; details: 24 hours
Description: MIA-PaCa-2 cells were treated with Compound 7A at 25 μM, 12.5 μM, 6.25 μM, and 3.125 μM, respectively, for 24 hours. Capture ELISA of Mcl-1 was performed using a dilution series of MIA-PaCa-2 cell lysates equalized for total protein in a 96-well plate coated with sheep anti-human Mcl-1 (R&D Systems, #AF8281). Detection of Mcl-1 was performed using biotinylated sheep anti-human Mcl-1 followed by streptavidin-horseradish peroxidase and TMB development. For detection of ubiquitylated Mcl-1 the same capture conditions were used but employing a biotinylated mouse anti-human ubiquitin antibody (R&D Systems, #MAB701), again detecting with streptavidin-horseradish peroxidase and TMB development. Lysate samples were run in triplicate and percentages were calculated based on the signal generated from cell lysates with no compound added (vehicle control samples). […] With 12.5 μM Compound 7A, Mcl-1 declined by about 25.0% whereas ubiquitylated Mcl-1 increased by about 14.0%.

In the case of `CN1CCOc2ccc(cc2)C(=O)NCc2cccc(c2)C(=O)N[C@@H](CC(C)(C)C)C(=O)Nc2ccc(cc2)CCN(C)C(=O)CC(C)(C)CC1=O` [Compound 5A], the “enhancement in ABT737's potency / sensitivity of cells to ABT737” value (MDA-MB-231 cells) is reported as 5 fold.

`CN1CCOc2ccc(cc2)C(=O)NCc2ccc(F)c(c2)C(=O)N[C@@H](CC(C)(C)C)C(=O)Nc2ccc(cc2)CCN(C)C(=O)CC(C)(C)CC1=O` [Compound 7A] was tested, and the IC50 (U937 cells; read-out: IC50 for the inhibition of U937) was 270 nM, the IC50 (U937 cells; U937 cells, single agent, read-out: IC50, cell viability) was 270 nM and the “enhancement in ABT737's potency / sensitivity of cells to ABT737” value (U937 cells; U937 cells, co-treatment of 0.5 μM Compound 7A) was 57 fold. The “cell viability decreased to” value (U937 cells; U937 cells, when Mcl-1 level decreased by 50%) was 0, the “level of erbB2 declined to” value (erbB2) was “about zero” and the IC50 [1] was 2700 nM. The “IC50 Ratio WP1130/Compound 7A” value (BT-549; BT-549) was 27.0, the IC50 (BT-549; BT-549, breast ductal carcinoma) was 199 nM and the IC50 (BT-549; Homo sapiens, BT-549, BT-549, breast ductal carcinoma) was 200 nM. For the same compound, the “IC50 Ratio WP1130/Compound 7A” value (RKO) was 4.9, the IC50 (RKO; Homo sapiens) was 880 nM and the IC50 (RKO) was 683 nM. For the same compound, the “decrease of level of PD-L1” value (PD-L1) was “about 50%”, the “cancer cell lines sensitive / proliferation inhibited, of 66” value (66 cancer cell lines; 66 cell lines tested) was 57 and the “activity” value (66 cancer cell lines; in 3 of 66 cell lines, high Bcl-xL) was “inactive”. The “fold more potent than WP 1130” value (66 cancer cell lines; in 12 of 66 cell lines) was “about 4 fold”, the “cell viability” value [2] was “significant decreases” and the “cell viability” value (RKO colon cells) was “significant decreases”. The Mcl-1 decline (Mcl-1; 12.5 μM) was “about 25.0%”, the “ubiquitylated Mcl-1 increase” value (Mcl-1; 12.5 μM) was “about 14.0%” and the Mcl-1 decline (Mcl-1; 25 μM) was “about 23.0%”. The “ubiquitylated Mcl-1 increase” value (Mcl-1; 25 μM) was “about 27.5%”.
